Measured values taken from ChEMBL document CHEMBL1141175, “Synthesis and antiviral evaluation of cis-substituted cyclohexenyl and cyclohexanyl nucleosides” (J Med Chem, 2005).

What was measured:
Coxsackievirus = assay: Effective concentration required to inhibit Coxsackie B3 virus induced cytopathicity in vero cells; format: functional, organism-based
Human alphaherpesvirus 1 = assay: Effective concentration required to inhibit herpes simplex virus type 1 Kos strain induced cytopathicity in Hel cells; format: functional, organism-based; settings: Human alphaherpesvirus 1, HEL

| EC50 (Coxsackievirus) | EC50 (Human alphaherpesvirus 1) | SMILES |
| --- | --- | --- |
| > 200 µM | 63 µM | Cc1cn([C@H]2C=CC[C@@H](CO)C2)c(=O)[nH]c1=O (racemic) |
| > 200 µM | > 200 µM | Nc1ccn([C@H]2C=CC[C@@H](CO)C2)c(=O)n1 (racemic) |
| > 200 µM | > 200 µM | Nc1ncnc2c1ncn2[C@H]1C=CC[C@@H](CO)C1 (racemic) |
| > 200 µM | > 200 µM | Nc1ncnc2c1ncn2[C@H]1CCC[C@@H](CO)C1 (racemic) |

Further lines, the molecule ahead of its results:

| SMILES | EC50 (Coxsackievirus) | EC50 (Human alphaherpesvirus 1) |
| --- | --- | --- |
| N#Cc1cc([N+](=O)[O-])ccc1Oc1ccc(Cl)c(Cl)c1 | 5.84 µM |  |
| Nc1nc(O)c2ncn([C@H]3C=CC[C@@H](CO)C3)c2n1 (racemic) | > 200 µM | > 200 µM |
| Cc1cn([C@H]2CCC[C@@H](CO)C2)c(=O)[nH]c1=O (racemic) | 168 µM | > 200 µM |
| Nc1ccn([C@H]2CCC[C@@H](CO)C2)c(=O)n1 (racemic) | > 200 µM | 62 µM |
| Nc1nc2c(ncn2COCCO)c(=O)[nH]1 [ACYCLOVIR] |  | 0.32 µM |
| Nc1nc2c(ncn2COC(CO)CO)c(=O)[nH]1 [GANCICLOVIR] |  | 0.06 µM |
